Drawing on patent US8088784B2, “4-(3-aminopyrazole) pyrimidine derivatives for use as tyrosine kinase inhibitors in the treatment of cancer” (AstraZeneca AB, priority 2005, dated 2012), this text covers IC50 for two compounds.

One experiment deals with T1, human Trk A kinase (Homo sapiens, UniProt P04629).
T1 construct: His; made in house; host or cells: SF9 insect cells
The experiment in a line: Trk A kinase Alphascreen assay. The following applies: HIS-tagged intracellular domain of human Trk A, 70 μM ATP, 20 minutes, room temperature; read-out: Trk inhibitory activity IC50. In kind it is biochemical. The procedure:
Trk A kinase activity was measured for its ability to phosphorylate synthetic tyrosine residues within a generic polypeptide substrate using an Amplified Luminescent Proximity Assay (Alphascreen) technology (PerkinElmer, 549 Albany Street, Boston, Mass.).
To measure Trk A kinase activity, the intracellular domain of a HIS-tagged human Trk A kinase (amino acids 442-796 of Trk A, Swiss-Prot Primary Accession Number P04629) was expressed in SF9 cells and purified using standard nickel column chromatography. After incubation of the kinase with a biotinylated substrate and adenosine triphosphate (ATP) for 20 minutes at room temperature, the kinase reaction was stopped by the addition of 30 mM ethylenediaminetetraacetic acid (EDTA). The reaction was performed in 384 well microtitre plates and the reaction products were detected with the addition of strepavidin coated Donor Beads and phosphotyrosine-specific antibodies coated Acceptor Beads using the EnVision Multilabel Plate Reader after an overnight incubation at room temperature.

The next experiment addresses T2, human JAK2 (Homo sapiens, UniProt O60674).
T2 construct: human JAK2, amino acids 808-end; His6 (C); purchased Upstate Biotechnology 14-640; host or cells: baculovirus in Sf21 cells
The experiment in a line: JAK2 kinase Alphascreen assay. In kind it is biochemical. The following applies: recombinant human JAK2 (aa 808-end), 30uM ATP, 60 minutes, room temperature; read-out: JAK inhibitory activity IC50.

One may read the IC50 as the concentration needed to halve the response being measured.

T1 sequence (P04629 442-796): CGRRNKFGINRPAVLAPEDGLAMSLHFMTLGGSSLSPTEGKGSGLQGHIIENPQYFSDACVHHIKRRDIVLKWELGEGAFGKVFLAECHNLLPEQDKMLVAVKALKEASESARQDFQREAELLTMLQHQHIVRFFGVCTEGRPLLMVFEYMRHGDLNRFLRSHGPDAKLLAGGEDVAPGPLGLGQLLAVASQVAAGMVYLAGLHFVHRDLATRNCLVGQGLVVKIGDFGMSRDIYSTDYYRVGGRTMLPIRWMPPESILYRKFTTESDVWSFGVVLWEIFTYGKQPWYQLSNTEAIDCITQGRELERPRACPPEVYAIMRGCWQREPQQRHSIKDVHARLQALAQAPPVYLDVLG
T2 sequence (O60674 808-1132 limits assumed): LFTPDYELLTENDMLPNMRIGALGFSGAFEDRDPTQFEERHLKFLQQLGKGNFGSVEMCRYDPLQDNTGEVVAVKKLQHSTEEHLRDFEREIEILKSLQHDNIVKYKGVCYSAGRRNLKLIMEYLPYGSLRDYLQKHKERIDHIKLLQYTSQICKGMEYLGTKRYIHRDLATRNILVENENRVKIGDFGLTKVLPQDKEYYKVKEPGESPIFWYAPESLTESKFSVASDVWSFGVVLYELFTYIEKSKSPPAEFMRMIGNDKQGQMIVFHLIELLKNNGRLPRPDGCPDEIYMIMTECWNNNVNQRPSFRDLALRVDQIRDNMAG
Description for human JAK2: JAK2 kinase activity was measured for its ability to phosphorylate synthetic tyrosine residues within a generic polypeptide substrate using an Amplified Luminescent Proximity Assay (Alphascreen) technology (PerkinElmer, 549 Albany Street, Boston, Mass.).
To measure JAK2 kinase activity, commercially available purified enzyme, C-terminal His6-tagged, recombinant, human JAK2, amino acids 808-end, (Genbank Accession number NM 004972) expressed by baculovirus in Sf21 cells from Upstate Biotechnology #14-640 was used. After incubation of the kinase with a biotinylated substrate and adenosine triphosphate (ATP) for 60 minutes at room temperature, the kinase reaction was stopped by the addition of 30 mM ethylenediaminetetraacetic acid (EDTA). The reaction was performed in 384 well microtitre plates and the reaction products were detected with the addition of streptavidin coated Donor Beads and phosphotyrosine-specific antibodies coated Acceptor Beads using the EnVision Multilabel Plate Reader after an overnight incubation at room temperature.

With `CC(C)Oc1cc(Nc2nc(NC(C)c3ncc(F)cn3)ncc2Cl)n[nH]1` (centres unmarked) [Example 1, 5-Chloro-N^4-(5-isopropoxy-1H-pyrazol-3-yl)-N^2-[1-(5-fluoropyrimidin-2-yl)ethyl]pyrimidine-2,4-diamine], on human Trk A kinase, the IC50 came to 33 nM.

Turning to `COc1cc(Nc2nc(N[C@@H](C)c3ncc(F)cn3)ncc2Cl)n[nH]1` [Example 7, 5-Chloro-N^2-[(1S)-1-(5-fluoropyrimidin-2-yl)ethyl]-10-(5-methoxy-1H-pyrazol-3-yl)pyrimidine-2,4-diamine], the IC50 on human JAK2 was 3.9 nM.
